One block for each molecule: values may come before it.
What was measured:
Type in all cases: physicochemical
[1] = Dynamic vapor sorption (DVS)
Method: About 20 mg of the crystalline form was transferred into a dynamic vapor sorption instrument from Surface Measurement Systems Ltd. (SMS). The weight change was recorded relative to the relative humidity (Target RH %) at 25° C.
Crystalline Forms A and J were analyzed by dynamic vapor sorption (DVS) according to the conditions described in the General Procedures.

[2] = Hygroscopicity of forms from the polymorph preparations (method not given)
[3] = VT-PXRD analysis of form change
[4] = Thermogravimetric analysis (TGA); settings: heating 10° C./min, nitrogen
Method: TA INSTRUMENT® models Q5000, Q500, or 2950 were used to generate TGA data. The measurement was made using standard TA Instruments Platinum pans. The measurement was made at a heating rate of 10° C./min, in a nitrogen environment from room temperature to 300° C., with a sample size about 10-30 mg.
Crystalline Forms A and J were analyzed by thermogravimetric analysis (TGA) according to the conditions described in the General Procedures. Exemplary TGA thermograms for Forms A and J are shown in FIGS. 4 and 13D, respectively.

change of crystalline form after being subjected to DVS conditions ([1]; PXRD and IR post-DVS analysis): did not change
hygroscopicity indicated by DVS analysis ([1]; weight change vs relative humidity at 25° C.): not hygroscopic
SMILES: C[C@@H]1CCC[C@H](n2cnc(-c3cc(Cl)ccc3-n3cc(Cl)nn3)cc2=O)c2cc(ccn2)-c2c(cnn2C(F)F)NC1=O [Form A, (9R,13S)-13-{4-[5-chloro-2-(4-chloro-1H-1,2,3-triazol-1-yl)phenyl]-6-oxo-1,6-dihydropyrimidin-1-yl}-3-(difluoromethyl)-9-methyl-3,4,7,15-tetraazatricyclo[12.3.1.0^2,6]octadeca-1(18),2(6),4,14,16-pentaen-8-one]

hygroscopicity [2]: non-hygroscopic
change in form on VT-PXRD analysis [3]: no change in form
SMILES: C[C@@H]1CCC[C@H](n2cnc(-c3cc(Cl)ccc3-n3cc(Cl)nn3)cc2=O)c2cc(ccn2)-c2c(cnn2C(F)F)NC1=O [Form C, (9R,13S)-13-{4-[5-chloro-2-(4-chloro-1H-1,2,3-triazol-1-yl)phenyl]-6-oxo-1,6-dihydropyrimidin-1-yl}-3-(difluoromethyl)-9-methyl-3,4,7,15-tetraazatricyclo[12.3.1.0^2,6]octadeca-1(18),2(6),4,14,16-pentaen-8-one]

loss of weight in TGA ([4]; below about 250° C.): no significant loss of weight
onset of decomposition in TGA [4]: about 281 °C
SMILES: C[C@@H]1CCC[C@H](n2cnc(-c3cc(Cl)ccc3-n3cc(Cl)nn3)cc2=O)c2cc(ccn2)-c2c(cnn2C(F)F)NC1=O [Form J, (9R,13S)-13-{4-[5-chloro-2-(4-chloro-1H-1,2,3-triazol-1-yl)phenyl]-6-oxo-1,6-dihydropyrimidin-1-yl}-3-(difluoromethyl)-9-methyl-3,4,7,15-tetraazatricyclo[12.3.1.0^2,6]octadeca-1(18),2(6),4,14,16-pentaen-8-one]
